Like-named read-outs stand apart in the source and are kept apart here. Peptide text beside a SMILES is read from it. * marks the point of attachment. AMC = Cc1cc(=O)oc2cc(N*)ccc12; Boc = CC(C)(C)OC(=O)*
How the values were obtained:
Format in all cases: biochemical, S. cerevisiae
[1] = test system: background activity in membranes of kex2[YEp24] cells; assay: Endopeptidase activity in membranes from kex2 cells transformed with the vector YEp24 alone (background activity); conditions: for Susceptibility of the background activity to inhibition: kex2 cells transformed with YEp24 alone
Description: (§1) Permeabilization of whole yeast cells with the non-ionic detergent Brij 58, preparation of crude membrane fractions, and measurement of protein concentration were conducted by the methods described previously (Julius et al., 1983, supra), incorporated herein by reference. To measure peptidase activity, samples of permeabilized cells or membrane material were added to a reaction mixture containing 0.1-0.5 mM fluorogenic peptide substrate (added from a 20 mM stock dissolved in DMSO) and 200 mM HEPES-Tris (pH 7.0), in a final volume of 0.4 ml. Following incubation for 30 min at 37° C., whole cells were removed by centrifugation in a microfuge (Eppendorf) and membrane material was removed by Ba(OH)2 -ZnSO4 precipitation. The amount of fluorescence formed in the supernatant solution was determined in a fluorescence spectrophotometer (Perkin-Elmer, Model MPF-44B), set either at an excitation wavelength of 335 nm and an emission wavelength of 410 nm (for measurement of β-naphthylamine) or at an excitation wavelength of 380 nm and an emission wavelength of 460 nm (for measurement of 7-amino-4-methyl-coumarin, AMC). To determine the number of moles of substrate hydrolyzed, the fluorescence yield of samples was compared to a standard curve prepared with known concentrations of authentic AMC dissolved in the same buffer.
(§2) Cells of strain XBH1615A that had been transformed with the plasmids
(§3) indicated, or that contained pJ2B in integrated form, were grown in SCUra
(§4) and membranes were prepared as described in the Experimental.
(§5) Endopeptidase activity was assayed as described in the Experimental. All
(§6) substrates tested were present at 0.1 mM.
(§7) Endopeptidase activity was assayed using Boc--GlnArgArg--MCA as the
(§8) substrate, as outlined in the Experimental. All inhibitors were added fro
(§9) a 0.1 M stock dissolved in dimethyl sulfoxide. All values given were
(§10) corrected for the slight effects of addition of this solvent alone.

[2] = molecular target: T1, KEX2 endopeptidase (kex2[YEp24-pJ2B] membranes) (Saccharomyces cerevisiae, UniProt P13134); assay: Endopeptidase activity in membranes from kex2 cells carrying multicopy plasmid pJ2B (over-produced specific endopeptidase); conditions: for Relative Ratio: kex2[YEp24-pJ2B] relative to kex2[YEp24] = [1.0]; for Rate of hydrolysis, membranes from kex2 cells carrying pJ2B versus membranes from kex2 cells carrying YEp24 / Rate of hydrolysis (in words): membrane fractions; for Rate of hydrolysis, membranes from kex2 cells carrying pJ2B versus membranes from kex2 cells carrying YEp24: depending on the experiment; for Rate of hydrolysis (in words): endopeptidase substrates containing single arginine residues
T1 construct: not only includes the KEX2 gene, but also the necessary transcriptional and translational regulatory signals for expression in yeast; expressed in transfected cells; host or cells: S. cerevisiae XBH16-15A (MATalpha kex2-1) carrying YEp24-pJ2B
T1 sequence (P13134 114-814): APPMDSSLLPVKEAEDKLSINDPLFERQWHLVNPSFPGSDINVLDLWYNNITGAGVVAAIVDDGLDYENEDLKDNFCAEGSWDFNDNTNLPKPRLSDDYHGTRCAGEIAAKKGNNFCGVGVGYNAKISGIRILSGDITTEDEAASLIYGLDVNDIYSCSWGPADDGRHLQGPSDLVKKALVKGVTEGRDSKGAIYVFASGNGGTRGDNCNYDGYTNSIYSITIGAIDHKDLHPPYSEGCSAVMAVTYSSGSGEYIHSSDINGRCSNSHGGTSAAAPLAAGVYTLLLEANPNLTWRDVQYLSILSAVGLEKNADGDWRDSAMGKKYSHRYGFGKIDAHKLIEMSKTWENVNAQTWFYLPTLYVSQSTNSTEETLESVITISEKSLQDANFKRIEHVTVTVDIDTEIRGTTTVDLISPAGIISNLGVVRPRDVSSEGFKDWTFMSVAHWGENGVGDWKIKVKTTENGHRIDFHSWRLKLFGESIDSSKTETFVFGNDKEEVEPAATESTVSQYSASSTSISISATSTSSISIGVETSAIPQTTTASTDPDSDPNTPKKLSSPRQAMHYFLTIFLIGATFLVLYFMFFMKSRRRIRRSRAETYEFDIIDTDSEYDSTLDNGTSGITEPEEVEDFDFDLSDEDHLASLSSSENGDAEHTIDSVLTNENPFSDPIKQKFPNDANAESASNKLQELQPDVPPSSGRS
Description: as §1, §2, §3, §4, §5, §6, §7, §8
a 0.1 M stock dissolved in dimethyl sulfoxide.

[3] = molecular target: T2, KEX2 endopeptidase (kex2::pJ2B membranes) (Saccharomyces cerevisiae, UniProt P13134); assay: Endopeptidase activity in membranes from kex2 cells containing pJ2B in integrated form; conditions: for Relative Ratio: kex2::pJ2B relative to kex2[YEp24] = [1.0]
T2 construct: not only includes the KEX2 gene, but also the necessary transcriptional and translational regulatory signals for expression in yeast; expressed in transfected cells; host or cells: S. cerevisiae XBH16-15A (MATalpha kex2-1) containing pJ2B in integrated form; crude membranes
Description: as §1, §2, §3, §4, §5, §6, §7, §8, §9, §10

[4] = strain kex2[YEp24], substrate 0.1 mM, membranes
[5] = strain kex2[YEp24-pJ2B], substrate 0.1 mM, membranes
[6] = strain kex2::pJ2B, substrate 0.1 mM, membranes
[7] = kex2[YEp24], inhibitor 1 mM, substrate Boc-GlnArgArg-MCA
[8] = kex2[YEp24], inhibitor 5 mM, substrate Boc-GlnArgArg-MCA
[9] = kex2[YEp24-pJ2B], inhibitor 1 mM, substrate Boc-GlnArgArg-MCA
[10] = kex2[YEp24-pJ2B], inhibitor 5 mM, substrate Boc-GlnArgArg-MCA
[11] = kex2 cells transformed with plasmid pJ2B, comparisons are to the background activity
[12] = kex2::pJ2B, inhibitor 1 mM, substrate Boc-GlnArgArg-MCA
[13] = kex2::pJ2B, inhibitor 5 mM, substrate Boc-GlnArgArg-MCA

## Cc1cc(=O)oc2cc(NC(=O)[C@@H](N)CCCNC(=N)N)ccc12 [Arg--MCA, Arg-MCA]
[1]; [4]
  Specific Activity: 6.7 pmoles AMC formed/μg protein 10
[2]; substrate 0.1 mM
  Relative Ratio: 2.1
[2]
  Rate of hydrolysis, membranes from kex2 cells carrying pJ2B versus membranes from kex2 cells carrying YEp24: no significant increase
[2]; [5]
  Specific Activity: 14.0 pmoles AMC formed/μg protein 10
[3]; substrate 0.1 mM
  Relative Ratio: 1.2
[3]; [6]
  Specific Activity: 8.0 pmoles AMC formed/μg protein 10

## CC[C@H](C)[C@H](NC(=O)OC(C)(C)C)C(=O)N[C@@H](CCC(=O)O)C(=O)NCC(=O)N[C@@H](CCCNC(=N)N)C(=O)Nc1ccc2c(C)cc(=O)oc2c1 [Boc--IleGluGlyArg--MCA, Boc-IleGluGlyArg-MCA] (Boc-IEGR-{AMC})
[1]; [4]
  Specific Activity: 0.3 pmoles AMC formed/μg protein 10
[2]; substrate 0.1 mM
  Relative Ratio: 19.3
[2]
  Rate of hydrolysis (in words): negligible rates
[2]; [5]
  Specific Activity: 5.8 pmoles AMC formed/μg protein 10
[3]; substrate 0.1 mM
  Relative Ratio: 3.0
[3]; [6]
  Specific Activity: 0.9 pmoles AMC formed/μg protein 10

## Cc1cc(=O)oc2cc(NC(=O)[C@H](CCCNC(=N)N)NC(=O)[C@H](CO)NC(=O)[C@H](Cc3ccccc3)NC(=O)OC(C)(C)C)ccc12 [Boc--PheSerArg--MCA, Boc-PheSerArg-MCA] (Boc-Phe-Ser-Arg-{AMC})
[1]; [4]
  Specific Activity: 0.6 pmoles AMC formed/μg protein 10
[2]; substrate 0.1 mM
  Relative Ratio: 51.7
[2]; membrane fractions of kex2 cells carrying pJ2B
  Rate of hydrolysis relative to Boc-GlnArgArg-MCA, times more slowly: about three times more slowly
[2]; [5]
  Specific Activity: 31.0 pmoles AMC formed/μg protein 10
[3]; substrate 0.1 mM
  Relative Ratio: 6.3
[3]; [6]
  Specific Activity: 3.8 pmoles AMC formed/μg protein 10

## Cc1cc(=O)oc2cc(NC(=O)[C@H](CCCNC(=N)N)NC(=O)c3ccccc3)ccc12 [Bz--Arg--MCA, Bz-Arg-MCA]
[1]; [4]
  Specific Activity: 0.1 pmoles AMC formed/μg protein 10
[2]; substrate 0.1 mM
  Relative Ratio: 6.0
[2]
  Rate of hydrolysis (in words): negligible rates
[2]; [5]
  Specific Activity: 0.6 pmoles AMC formed/μg protein 10
[3]; substrate 0.1 mM
  Relative Ratio: 1.0
[3]; [6]
  Specific Activity: 0.1 pmoles AMC formed/μg protein 10

## Cc1cc(=O)oc2cc(NC(=O)[C@@H](N)CC(C)C)ccc12 [Leu--MCA, Leu-MCA]
[1]; [4]
  Specific Activity: 33.7 pmoles AMC formed/μg protein 10
[2]; substrate 0.1 mM
  Relative Ratio: 2.1
[2]
  Rate of hydrolysis, membranes from kex2 cells carrying pJ2B versus membranes from kex2 cells carrying YEp24: no significant increase
[2]; [5]
  Specific Activity: 69.8 pmoles AMC formed/μg protein 10
[3]; substrate 0.1 mM
  Relative Ratio: 1.1
[3]; [6]
  Specific Activity: 37.9 pmoles AMC formed/μg protein 10

## O=S(=O)(F)Cc1ccccc1 [PMSF, phenylmethylsulfonyl fluoride]
[1]; [7]
  Inhibition: 45%
  Specific Activity: 2.8 pmoles/μg/10 min
[1]; [8]
  Inhibition: 71%
  Specific Activity: 1.5 pmoles/μg/10 min
[1]
  Susceptibility of the background activity to inhibition: sensitive to inhibition
[2]; [9]
  Inhibition: 0%
  Specific Activity: 116.7 pmoles/μg/10 min
[2]; [10]
  Inhibition: 0%
  Specific Activity: 110.2 pmoles/μg/10 min
[2]; [11]
  Susceptibility of the specific KEX2 endopeptidase to inhibition or inactivation: completely resistant
[3]; [12]
  Inhibition: 17%
  Specific Activity: 14.4 pmoles/μg/10 min
[3]; [13]
  Inhibition: 16%
  Specific Activity: 14.7 pmoles/μg/10 min

## Cc1ccc(S(=O)(=O)NC(CCCCN)C(=O)CCl)cc1 (centres unmarked) [TLCK, tosyl-lysine-chloromethylketone]
[1]; [7]
  Inhibition: 55%
  Specific Activity: 2.3 pmoles/μg/10 min
[1]; [8]
  Inhibition: 65%
  Specific Activity: 1.8 pmoles/μg/10 min
[1]
  Susceptibility of the background activity to inhibition: sensitive to inhibition
[2]; [9]
  Specific Activity: 100.8 pmoles/μg/10 min
  inhibition at 1000 µM: 7%
[2]; [10]
  Specific Activity: 95.5 pmoles/μg/10 min
  inhibition at 5000 µM: 12%
[2]; [11]
  Susceptibility of the specific KEX2 endopeptidase to inhibition or inactivation: completely resistant
[3]
  inhibition at 1000 µM: 16%
  inhibition at 5000 µM: 17%
[3]; [12]
  Specific Activity: 14.6 pmoles/μg/10 min
[3]; [13]
  Specific Activity: 14.5 pmoles/μg/10 min

## Cc1ccc(S(=O)(=O)NC(Cc2ccccc2)C(=O)CCl)cc1 (centres unmarked) [TPCK, tosyl-phenylalanine-chloromethylketone]
[1]; [7]
  Inhibition: 57%
  Specific Activity: 2.2 pmoles/μg/10 min
[1]; [8]
  Inhibition: 73%
  Specific Activity: 1.4 pmoles/μg/10 min
[1]
  Susceptibility of the background activity to inhibition: sensitive to inhibition
[2]; [9]
  Specific Activity: 105.9 pmoles/μg/10 min
  inhibition at 1000 µM: 2%
[2]; [10]
  Specific Activity: 109.2 pmoles/μg/10 min
  inhibition at 5000 µM: 0%
[2]; [11]
  Susceptibility of the specific KEX2 endopeptidase to inhibition or inactivation: completely resistant
[3]
  inhibition at 1000 µM: 18%
  inhibition at 5000 µM: 13%
[3]; [12]
  Specific Activity: 14.3 pmoles/μg/10 min
[3]; [13]
  Specific Activity: 15.2 pmoles/μg/10 min

## C[S+](C)[O-] [dimethyl sulfoxide]
[2]; [11]
  Susceptibility of the specific KEX2 endopeptidase to inhibition or inactivation: much less sensitive to inactivation

## NC=O [formamide]
[2]; [11]
  Susceptibility of the specific KEX2 endopeptidase to inhibition or inactivation: much less sensitive to inactivation

## NC(=O)CI [iodoacetamide]
[2]; [11]
  Susceptibility of the specific KEX2 endopeptidase to inhibition or inactivation: more susceptible to inhibition

## O=C(O)CI [iodoacetic acid]
[2]
  Susceptibility of the specific KEX2 endopeptidase to inhibition or inactivation: more susceptible to inhibition

## CO [methanol]
[2]
  Susceptibility of the specific KEX2 endopeptidase to inhibition or inactivation: much less sensitive to inactivation

— US5077204A, “Yeast endopeptidase for basic amino-acid site cleavage, preparation and use” (Chiron Corporation, priority 1988, dated 1991)
